{
  "source": "PubChem BioAssay AID1996",
  "data": [
    {"details": "buffer; pH 7.4; 200.0 µM", "units": {"solubility kinetic": "µg/mL"}, "values": [
      {"compound": "COc1cc([N+](=O)[O-])ccc1NC(=O)Nc1ccc2c(c1)OCCO2", "solubility kinetic": "< 0.2"},
      {"compound": "CCOc1ccc(C2(C)NC(=O)N(CCN(C)C)C2=O)cc1", "note": "(stereo unspecified)", "solubility kinetic": 38.1},
      {"compound": "COc1ccc(NC(=O)c2ccccc2NC(=O)c2cccs2)cc1", "solubility kinetic": "< 0.4"},
      {"compound": "CCOc1ccc(C=NCC(O)c2ccccc2)cc1", "note": "(stereo unspecified)", "solubility kinetic": 37},
      {"compound": "Cc1cccc(-c2noc(CNC(=O)COc3ccccc3C)n2)c1", "solubility kinetic": 1.2},
      {"compound": "Cc1ccc(C)c(NC(=O)CN(C)C(=O)CC2OC(=O)c3ccccc32)c1", "note": "(stereo unspecified)", "solubility kinetic": "> 55"},
      {"compound": "Cc1[nH]c2ccccc2c1SCC(=O)N1CCCCC1", "solubility kinetic": 40.4},
      {"compound": "Brc1ccc2[nH]c3c(c2c1)CCC3", "solubility kinetic": 3.1},
      {"compound": "O=C(NCc1ccccc1Br)C1CCCO1", "note": "(stereo unspecified)", "solubility kinetic": "> 42.6"},
      {"compound": "COc1ccc(CCNC(=O)CSc2nc3scc(-c4ccccc4)c3c(=O)[nH]2)cc1", "solubility kinetic": 2},
      {"compound": "CNC(=S)N1CCc2sccc2C1C", "note": "(stereo unspecified)", "solubility kinetic": "> 34"},
      {"compound": "Nc1nc(Nc2cccc(F)c2)nc(N2CCOCC2)c1[N+](=O)[O-]", "solubility kinetic": 2.9},
      {"compound": "O=C(COC(=O)c1cc2ccccc2cc1O)NCc1ccccc1", "solubility kinetic": 3},
      {"compound": "O=C(COc1ccccc1)Nc1ccc(Cl)cn1", "solubility kinetic": 12.7},
      {"compound": "O=C(CCN1C(=O)c2ccccc2S1(=O)=O)Nc1ccc(Cl)cc1", "solubility kinetic": 0.9},
      {"compound": "COC(=O)c1ccc(N2C(=O)C3CC=CC(C)C3C2=O)cc1", "note": "(stereo unspecified)", "solubility kinetic": 20},
      {"compound": "CC(C)(C)c1ccc(Oc2ncccc2NC(=O)c2cccs2)cc1", "solubility kinetic": "< 0.4"},
      {"compound": "CCN(c1ccc(NC(=O)CSc2ccc3c(c2)OCCO3)cc1)C(C)C", "solubility kinetic": 4.4},
      {"compound": "CN(C(=O)CSc1nnc(-c2ccc(F)cc2)n1C)C1CCS(=O)(=O)C1", "note": "(stereo unspecified)", "solubility kinetic": "> 59.8"},
      {"compound": "Cc1cccc(N2C(=O)C3CCCN3C2=S)c1C", "note": "(stereo unspecified)", "solubility kinetic": 38.4},
      {"compound": "O=C(Nc1c[nH]c(=O)[nH]c1=O)c1cc([N+](=O)[O-])cc([N+](=O)[O-])c1", "solubility kinetic": 16.7},
      {"compound": "Cc1csc(NC(=O)c2ccc(C)s2)n1", "solubility kinetic": 25.9},
      {"compound": "CC(C)Cn1c(N)c(C(=O)COC(=O)c2cc(S(=O)(=O)N3CCOCC3)ccc2Br)c(=O)n(C)c1=O", "solubility kinetic": 7.9},
      {"compound": "CN(C)C=Nc1c(Br)cc(Br)c2nonc12", "solubility kinetic": 6},
      {"compound": "O=C(COC(=O)CCc1nc2ccccc2c(=O)[nH]1)Nc1ccccc1", "solubility kinetic": "> 52.7"},
      {"compound": "CCOc1ccc(C(=O)NC(C(=O)N2CCC2)C(C)C)cc1", "note": "(stereo unspecified)", "solubility kinetic": "> 45.7"},
      {"compound": "COc1ccc(NC(=S)N(Cc2cccnc2)Cc2ccco2)cc1", "solubility kinetic": 44.8},
      {"compound": "CC(Cl)C(=O)Nc1cc(C(C)(C)C)nn1-c1ccccc1", "note": "(stereo unspecified)", "solubility kinetic": "> 45.9"},
      {"compound": "C=C(C)CN(CC)C(=O)CN1C(=O)NC2(CCCc3ccccc32)C1=O", "note": "(stereo unspecified)", "solubility kinetic": "> 53.3"},
      {"compound": "COC(=O)c1ccc(CNC(=O)COC(=O)/C=C/c2ccc(OC)c(OC)c2)cc1", "solubility kinetic": 6.6},
      {"compound": "CCOc1ccc(S(=O)(=O)n2cnc(C)c2)cc1", "solubility kinetic": 38.5},
      {"compound": "CC(=O)c1ccc(N(CC(=O)NC2CCS(=O)(=O)C2)S(=O)(=O)c2ccc(C)cc2)cc1", "note": "(stereo unspecified)", "solubility kinetic": 10.4},
      {"compound": "O=C(Nc1ccc(N2CCCC2)cc1)c1ccc(Br)cc1", "solubility kinetic": 1.4},
      {"compound": "ON(Cc1c(F)cccc1Cl)Cc1c(F)cccc1Cl", "solubility kinetic": 0.9},
      {"compound": "O=C(Nc1ccc2c(c1)OCO2)C1CC(=O)N(c2cccc(Cl)c2)C1", "note": "(stereo unspecified)", "solubility kinetic": 0.9},
      {"compound": "Cc1ccccc1OCC(=O)OCC(=O)NC1CC1", "solubility kinetic": "> 39.5"},
      {"compound": "Cc1cc(NC(=O)CSCc2ccc([N+](=O)[O-])cc2)no1", "solubility kinetic": 24.6},
      {"compound": "COC(=O)C1=C(C)NC(C)=C(C(=O)OC)C1c1ccc(C)o1", "solubility kinetic": 13},
      {"compound": "O=C(O)c1ccc2c(=O)n3c(nc2c1)/C(=C/c1cccc(O)c1)CC3", "solubility kinetic": "> 50.1"},
      {"compound": "CCCCCOc1ccc(NC2=CC(=O)CCC2)cc1", "solubility kinetic": "> 41"},
      {"compound": "Cl.NCCOc1ccccc1OCCN", "solubility kinetic": "> 40.4"},
      {"compound": "CC(C)N=C(NS(=O)(=O)c1cccs1)c1ccccc1", "solubility kinetic": "> 46.3"},
      {"compound": "CC(C)(C)c1ccc(-c2ncccc2O)cc1.Cl", "solubility kinetic": 10.6},
      {"compound": "CCc1nc2ccccc2c(C(=O)Nc2ccc(F)cc2)c1C", "solubility kinetic": "< 0.3"},
      {"compound": "COc1ccccc1N=C1SCC(=O)N1Cc1ccco1", "solubility kinetic": 35.8},
      {"compound": "Cc1cc(O)c(CN2CC=C(c3ccccc3)CC2)cc1C(C)C", "solubility kinetic": 1.2}
    ]}
  ]
}
